Reference: ChEMBL document CHEMBL1821675, “The selective P-TEFb inhibitor CAN508 targets angiogenesis” (Eur J Med Chem, 2011)
Activity calls are given as the source filed them. No cut-off for these calls is given here.

What was measured:
[1] = target: Myosin light chain kinase, smooth muscle (Homo sapiens) (UniProt Q15746); test: Inhibition of SmMLCK assessed as residual activity at 10 uM by radioactivity assay in presence of 50 uM ATP
[2] = target: Serine/threonine-protein kinase Nek6 (Homo sapiens) (UniProt Q9HC98); test: Inhibition of NEK6 assessed as residual activity at 10 uM by radioactivity assay in presence of 50 uM ATP
Serine/threonine-protein kinase Nek6 (Homo sapiens), sequence (Q9HC98 whole entry): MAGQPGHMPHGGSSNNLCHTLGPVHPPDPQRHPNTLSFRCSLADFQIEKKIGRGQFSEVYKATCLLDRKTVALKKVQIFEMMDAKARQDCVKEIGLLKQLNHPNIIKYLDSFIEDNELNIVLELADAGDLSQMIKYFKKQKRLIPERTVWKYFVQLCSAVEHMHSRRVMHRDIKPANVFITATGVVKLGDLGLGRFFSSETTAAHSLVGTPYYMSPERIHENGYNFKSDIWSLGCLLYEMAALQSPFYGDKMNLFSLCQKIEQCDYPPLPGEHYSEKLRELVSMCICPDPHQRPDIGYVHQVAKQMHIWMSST

COLO 205 = test: Cytotoxicity against human COLO205 cells; assay type: functional
SF-268 = test: Cytotoxicity against human SF268 cells; assay type: functional
[3] = target: Insulin-like growth factor 1 receptor (Homo sapiens) (UniProt P08069); test: Inhibition of IGF-1R assessed as residual activity at 10 uM by radioactivity assay in presence of 5 uM ATP
[4] = Inhibition of PKA assessed as residual activity at 10 uM by radioactivity assay in presence of 20 uM ATP
[5] = target: Receptor tyrosine-protein kinase erbB-4 (Homo sapiens) (UniProt Q15303); test: Inhibition of HER4 assessed as residual activity at 10 uM by radioactivity assay in presence of 5 uM ATP
[6] = target: Serine/threonine-protein kinase STK11 (Homo sapiens) (UniProt Q15831); test: Inhibition of LKB1 assessed as residual activity at 10 uM by radioactivity assay in presence of 20 uM ATP
[7] = target: Ribosomal protein S6 kinase alpha-5 (Homo sapiens) (UniProt O75582); test: Inhibition of MSK1 assessed as residual activity at 10 uM by radioactivity assay in presence of 20 uM ATP
Ribosomal protein S6 kinase alpha-5 (Homo sapiens), sequence (O75582 whole entry, looked up): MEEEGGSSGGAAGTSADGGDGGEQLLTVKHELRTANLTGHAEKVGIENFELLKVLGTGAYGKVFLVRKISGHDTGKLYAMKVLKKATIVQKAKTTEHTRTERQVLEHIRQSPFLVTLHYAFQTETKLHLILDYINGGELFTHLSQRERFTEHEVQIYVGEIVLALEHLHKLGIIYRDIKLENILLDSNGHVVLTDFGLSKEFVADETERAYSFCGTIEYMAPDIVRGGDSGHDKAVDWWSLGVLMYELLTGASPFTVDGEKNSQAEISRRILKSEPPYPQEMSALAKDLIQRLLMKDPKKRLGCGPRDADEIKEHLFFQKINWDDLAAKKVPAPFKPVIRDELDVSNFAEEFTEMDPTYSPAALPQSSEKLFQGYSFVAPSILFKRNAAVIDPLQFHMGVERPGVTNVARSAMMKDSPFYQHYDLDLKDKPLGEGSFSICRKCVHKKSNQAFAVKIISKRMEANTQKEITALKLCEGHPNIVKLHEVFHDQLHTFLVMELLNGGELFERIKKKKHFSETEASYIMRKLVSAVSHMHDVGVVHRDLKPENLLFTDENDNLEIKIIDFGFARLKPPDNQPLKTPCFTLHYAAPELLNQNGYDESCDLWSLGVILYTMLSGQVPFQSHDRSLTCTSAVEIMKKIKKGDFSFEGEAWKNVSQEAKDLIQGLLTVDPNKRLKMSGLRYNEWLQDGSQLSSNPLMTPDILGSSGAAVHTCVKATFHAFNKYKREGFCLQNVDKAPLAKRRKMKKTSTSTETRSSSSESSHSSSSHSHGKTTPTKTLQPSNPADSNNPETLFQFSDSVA

[8] = target: MAP/microtubule affinity-regulating kinase 4 (Homo sapiens) (UniProt Q96L34); test: Inhibition of MARK4 assessed as residual activity at 10 uM by radioactivity assay in presence of 50 uM ATP
MAP/microtubule affinity-regulating kinase 4 (Homo sapiens), sequence (Q96L34 whole entry): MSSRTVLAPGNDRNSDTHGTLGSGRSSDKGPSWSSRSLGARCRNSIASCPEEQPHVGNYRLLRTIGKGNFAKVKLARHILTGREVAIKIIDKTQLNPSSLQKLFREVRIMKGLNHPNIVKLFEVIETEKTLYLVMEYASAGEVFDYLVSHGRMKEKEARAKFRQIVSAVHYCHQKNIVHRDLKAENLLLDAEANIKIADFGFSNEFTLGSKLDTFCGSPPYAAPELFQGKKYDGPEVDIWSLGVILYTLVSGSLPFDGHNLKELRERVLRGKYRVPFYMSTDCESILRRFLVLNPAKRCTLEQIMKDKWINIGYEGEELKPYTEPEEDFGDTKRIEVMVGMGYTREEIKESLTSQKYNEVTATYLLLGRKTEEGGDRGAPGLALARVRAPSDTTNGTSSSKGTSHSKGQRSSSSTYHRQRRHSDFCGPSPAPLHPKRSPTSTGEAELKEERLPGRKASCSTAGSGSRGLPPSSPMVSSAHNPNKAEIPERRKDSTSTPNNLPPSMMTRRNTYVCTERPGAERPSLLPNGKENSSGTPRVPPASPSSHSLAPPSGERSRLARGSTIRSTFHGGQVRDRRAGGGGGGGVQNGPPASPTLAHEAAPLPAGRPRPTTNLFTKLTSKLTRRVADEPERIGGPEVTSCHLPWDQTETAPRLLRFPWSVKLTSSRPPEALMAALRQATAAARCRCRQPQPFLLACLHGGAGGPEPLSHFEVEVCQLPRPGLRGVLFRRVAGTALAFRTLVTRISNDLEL

[9] = Inhibition of VEGFR assessed as residual activity at 10 uM by radioactivity assay in presence of 20 uM ATP
[10] = target: Dual specificity mitogen-activated protein kinase kinase 1 (Homo sapiens) (UniProt Q02750); test: Inhibition of MKK1 assessed as residual activity at 10 uM by radioactivity assay in presence of 5 uM ATP
SK-MEL-28 = test: Cytotoxicity against human SK-MEL-28 cells; assay type: functional
[11] = target: NUAK family SNF1-like kinase 1 (Homo sapiens) (UniProt O60285); test: Inhibition of NUAK1 assessed as residual activity at 10 uM by radioactivity assay in presence of 20 uM ATP
NUAK family SNF1-like kinase 1 (Homo sapiens), sequence (O60285 whole entry): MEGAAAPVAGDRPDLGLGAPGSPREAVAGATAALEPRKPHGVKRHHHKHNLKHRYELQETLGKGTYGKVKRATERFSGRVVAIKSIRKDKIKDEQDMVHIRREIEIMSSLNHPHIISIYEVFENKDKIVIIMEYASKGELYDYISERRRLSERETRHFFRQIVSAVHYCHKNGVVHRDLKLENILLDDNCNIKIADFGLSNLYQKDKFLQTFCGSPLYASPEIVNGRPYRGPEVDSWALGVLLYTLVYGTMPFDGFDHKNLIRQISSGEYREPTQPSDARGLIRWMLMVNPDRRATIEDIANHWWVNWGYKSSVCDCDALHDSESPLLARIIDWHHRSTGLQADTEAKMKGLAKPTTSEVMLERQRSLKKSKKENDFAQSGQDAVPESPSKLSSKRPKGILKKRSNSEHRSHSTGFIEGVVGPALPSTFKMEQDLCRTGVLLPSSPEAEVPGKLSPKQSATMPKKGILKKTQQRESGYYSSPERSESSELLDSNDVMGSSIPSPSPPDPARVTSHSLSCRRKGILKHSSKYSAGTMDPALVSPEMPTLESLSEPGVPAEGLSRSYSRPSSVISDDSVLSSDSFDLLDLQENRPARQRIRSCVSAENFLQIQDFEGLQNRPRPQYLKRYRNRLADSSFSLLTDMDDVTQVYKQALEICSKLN

[12] = target: CDK9/cyclin T1 (Homo sapiens) (UniProt O60563+P50750); test: Inhibition of CDK9/cyclin T assessed as residual activity at 10 uM by radioactivity assay in presence of 50 uM ATP; assay type: protein-complex assay
MDA-MB-435 = test: Cytotoxicity against human MDA-MB-435 cells; assay type: functional
[13] = target: MAP kinase-activated protein kinase 5 (Homo sapiens) (UniProt Q8IW41); test: Inhibition of PRAK assessed as residual activity at 10 uM by radioactivity assay in presence of 20 uM ATP
[14] = target: 3-phosphoinositide-dependent protein kinase 1 (Homo sapiens) (UniProt O15530); test: Inhibition of PDK1 assessed as residual activity at 10 uM by radioactivity assay in presence of 20 uM ATP
[15] = target: Mitogen-activated protein kinase 9 (Homo sapiens) (UniProt P45984); test: Inhibition of JNK2alpha2 assessed as residual activity at 10 uM by radioactivity assay in presence of 20 uM ATP
Mitogen-activated protein kinase 9 (Homo sapiens), sequence (P45984 whole entry, looked up): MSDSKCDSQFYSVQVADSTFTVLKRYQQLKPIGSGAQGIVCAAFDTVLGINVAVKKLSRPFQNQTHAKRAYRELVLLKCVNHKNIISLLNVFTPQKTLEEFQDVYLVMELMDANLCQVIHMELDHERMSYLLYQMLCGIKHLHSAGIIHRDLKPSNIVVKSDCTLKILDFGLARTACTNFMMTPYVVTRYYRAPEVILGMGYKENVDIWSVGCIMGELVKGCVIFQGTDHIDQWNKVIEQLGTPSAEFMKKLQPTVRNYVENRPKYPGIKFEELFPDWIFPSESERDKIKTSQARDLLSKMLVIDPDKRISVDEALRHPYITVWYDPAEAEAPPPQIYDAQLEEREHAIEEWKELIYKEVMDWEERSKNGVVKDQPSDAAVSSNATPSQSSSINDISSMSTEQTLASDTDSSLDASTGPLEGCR

[16] = target: Mitogen-activated protein kinase kinase kinase 9 (Homo sapiens) (UniProt P80192); test: Inhibition of MLK1 assessed as residual activity at 10 uM by radioactivity assay in presence of 20 uM ATP
A549 = test: Cytotoxicity against human A549 cells; assay type: functional
HCT-116 = test: Cytotoxicity against human HCT116 cells; assay type: functional
SK-MEL-2 = test: Cytotoxicity against human SK-MEL-2 cells; assay type: functional
[17] = target: Ephrin type-B receptor 4 (Homo sapiens) (UniProt P54760); test: Inhibition of EPH-B4 assessed as residual activity at 10 uM by radioactivity assay in presence of 50 uM ATP
[18] = target: Serine/threonine-protein kinase Chk2 (Homo sapiens) (UniProt O96017); test: Inhibition of CHK2 assessed as residual activity at 10 uM by radioactivity assay in presence of 20 uM ATP
K562 = test: Cytotoxicity against human K562 cells; assay type: functional
IGROV-1 = test: Cytotoxicity against human IGROV1 cells; assay type: functional
OVCAR-8 = test: Cytotoxicity against human OVCAR8 cells; assay type: functional
[19] = target: Mitogen-activated protein kinase 1 (Homo sapiens) (UniProt P28482); test: Inhibition of ERK2 assessed as residual activity at 10 uM by radioactivity assay in presence of 20 uM ATP
Mitogen-activated protein kinase 1 (Homo sapiens), sequence (P28482 whole entry): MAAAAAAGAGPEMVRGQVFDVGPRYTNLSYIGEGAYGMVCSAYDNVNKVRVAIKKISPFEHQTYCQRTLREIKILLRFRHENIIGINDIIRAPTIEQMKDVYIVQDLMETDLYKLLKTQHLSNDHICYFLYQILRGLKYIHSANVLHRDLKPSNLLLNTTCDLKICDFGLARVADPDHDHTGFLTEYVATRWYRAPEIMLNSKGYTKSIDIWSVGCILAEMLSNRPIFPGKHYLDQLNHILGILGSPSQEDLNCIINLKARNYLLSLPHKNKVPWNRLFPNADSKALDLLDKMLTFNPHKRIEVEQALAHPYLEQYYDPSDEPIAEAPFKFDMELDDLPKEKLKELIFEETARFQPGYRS

HMEC-1 = test: Antiangiogenic activity in VEGF-stimulated HMEC1 assessed as reduction in tube nodes after 16 hrs by photographic analysis; assay type: functional; conditions: Homo sapiens
[20] = target: Serine/threonine-protein kinase pim-1 (Homo sapiens) (UniProt P11309); test: Inhibition of PIM1 assessed as residual activity at 10 uM by radioactivity assay in presence of 20 uM ATP
Serine/threonine-protein kinase pim-1 (Homo sapiens), sequence (P11309 whole entry, looked up): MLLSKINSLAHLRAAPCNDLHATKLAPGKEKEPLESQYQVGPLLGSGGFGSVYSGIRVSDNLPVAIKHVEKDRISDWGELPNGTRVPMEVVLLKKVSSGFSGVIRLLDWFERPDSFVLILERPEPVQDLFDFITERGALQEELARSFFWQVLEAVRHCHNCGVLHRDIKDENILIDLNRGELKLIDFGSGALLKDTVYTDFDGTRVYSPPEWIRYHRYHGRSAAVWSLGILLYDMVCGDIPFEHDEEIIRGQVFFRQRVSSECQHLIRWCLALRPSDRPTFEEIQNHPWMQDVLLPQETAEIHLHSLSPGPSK

HUVEC = test: Antiproliferative activity against HUVEC cells assessed as decrease in cell viability at >50 uM within 72 hrs by calcein AM staining-based fluorescence assay; conditions: human
[21] = target: Tyrosine-protein kinase BTK (Homo sapiens) (UniProt Q06187); test: Inhibition of BTK assessed as residual activity at 10 uM by radioactivity assay in presence of 50 uM ATP
Tyrosine-protein kinase BTK (Homo sapiens), sequence (Q06187 whole entry): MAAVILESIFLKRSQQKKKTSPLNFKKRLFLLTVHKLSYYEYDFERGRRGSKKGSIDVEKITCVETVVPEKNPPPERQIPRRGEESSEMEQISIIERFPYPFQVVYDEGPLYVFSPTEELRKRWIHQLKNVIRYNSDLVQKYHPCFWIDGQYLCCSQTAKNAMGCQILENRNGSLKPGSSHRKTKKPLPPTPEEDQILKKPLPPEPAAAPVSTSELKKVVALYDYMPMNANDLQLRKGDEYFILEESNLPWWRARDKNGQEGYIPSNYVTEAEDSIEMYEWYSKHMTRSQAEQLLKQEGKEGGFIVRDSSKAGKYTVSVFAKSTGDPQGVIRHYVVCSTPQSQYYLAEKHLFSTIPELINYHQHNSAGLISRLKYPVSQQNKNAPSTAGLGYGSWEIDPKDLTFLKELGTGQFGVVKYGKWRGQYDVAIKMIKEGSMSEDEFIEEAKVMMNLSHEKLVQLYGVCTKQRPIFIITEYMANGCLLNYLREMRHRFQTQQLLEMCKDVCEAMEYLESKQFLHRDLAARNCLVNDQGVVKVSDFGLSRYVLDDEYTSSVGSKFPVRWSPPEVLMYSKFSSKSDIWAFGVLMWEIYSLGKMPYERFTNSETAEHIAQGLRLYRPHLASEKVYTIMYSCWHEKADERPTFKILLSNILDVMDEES

EKVX = test: Cytotoxicity against human EKVX cells; assay type: functional
[22] = target: Inhibitor of nuclear factor kappa-B kinase subunit epsilon (Homo sapiens) (UniProt Q14164); test: Inhibition of IKK-epsilon assessed as residual activity at 10 uM by radioactivity assay in presence of 50 uM ATP
Inhibitor of nuclear factor kappa-B kinase subunit epsilon (Homo sapiens), sequence (Q14164 whole entry): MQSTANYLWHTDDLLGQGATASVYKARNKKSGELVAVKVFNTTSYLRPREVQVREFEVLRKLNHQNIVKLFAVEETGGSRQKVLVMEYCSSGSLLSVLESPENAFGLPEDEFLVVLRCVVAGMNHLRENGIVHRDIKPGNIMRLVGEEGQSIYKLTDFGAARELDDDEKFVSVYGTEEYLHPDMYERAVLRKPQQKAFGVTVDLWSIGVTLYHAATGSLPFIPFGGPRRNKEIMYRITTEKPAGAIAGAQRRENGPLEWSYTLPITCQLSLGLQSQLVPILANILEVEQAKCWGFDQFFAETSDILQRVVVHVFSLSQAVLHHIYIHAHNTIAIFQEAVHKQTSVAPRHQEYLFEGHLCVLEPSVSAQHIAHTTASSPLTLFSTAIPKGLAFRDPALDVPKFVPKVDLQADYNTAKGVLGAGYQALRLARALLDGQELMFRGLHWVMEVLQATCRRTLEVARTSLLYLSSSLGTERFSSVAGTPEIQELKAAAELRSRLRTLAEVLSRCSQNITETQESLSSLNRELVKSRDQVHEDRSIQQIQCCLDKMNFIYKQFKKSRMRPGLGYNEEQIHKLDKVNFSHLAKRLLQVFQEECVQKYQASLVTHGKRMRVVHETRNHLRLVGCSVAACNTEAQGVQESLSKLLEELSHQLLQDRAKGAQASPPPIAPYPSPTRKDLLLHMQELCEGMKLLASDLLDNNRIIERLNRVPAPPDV

[23] = target: Serine/threonine-protein kinase BRSK2 (Homo sapiens) (UniProt Q8IWQ3); test: Inhibition of BRSK2 assessed as residual activity at 10 uM by radioactivity assay in presence of 50 uM ATP
[24] = target: Serine/threonine-protein kinase PLK1 (Homo sapiens) (UniProt P53350); test: Inhibition of PLK1 assessed as residual activity at 10 uM by radioactivity assay in presence of 5 uM ATP
HOP-62 = test: Cytotoxicity against human HOP62 cells; assay type: functional
[25] = target: Tyrosine-protein kinase CSK (Homo sapiens) (UniProt P41240); test: Inhibition of CSK assessed as residual activity at 10 uM by radioactivity assay in presence of 20 uM ATP
[26] = target: Serine/threonine-protein kinase Nek2 (Homo sapiens) (UniProt P51955); test: Inhibition of NEK2a assessed as residual activity at 10 uM by radioactivity assay in presence of 50 uM ATP

For `Nc1n[nH]c(N)c1/N=N/c1ccc(O)cc1`, the Activity [1] was 54%, the Activity [2] was 114% and the GI50 (COLO 205) was 18.9 µM. It also gave a GI50 (SF-268) of 20.6 µM, an Activity [3] of 48% and an Activity [4] of 63%. The Activity [5] was 59%, the Activity [6] was 37% and the Activity [7] was 88%. It also gave an Activity [8] of 72%, an Activity [9] of 42% and an Activity [10] of 60%. For the same molecule, the GI50 (SK-MEL-28) was 22.1 µM, the Activity [11] was 40% and the Activity [12] was 12%. The GI50 (MDA-MB-435) was 17.1 µM, the Activity [13] was 43% and the Activity [14] was 66%. For the same molecule, the Activity [15] was 102%, the Activity [16] was 39% and the GI50 (A549) was 22.5 µM. The GI50 (HCT-116) was 18.9 µM, the GI50 (SK-MEL-2) was 14.4 µM and the Activity [17] was 99%. For the same molecule, the Activity [18] was 57%, the GI50 (K562) was 9.2 µM and the GI50 (IGROV-1) was 20.6 µM. For the same molecule, the GI50 (OVCAR-8) was 18 µM, the Activity [19] was 106% and the Activity (HMEC-1) was “inactive”. For the same molecule, the Activity [20] was 40%, the Activity (HUVEC) was “Non-toxic” and the Activity [21] was 41%. For the same molecule, the GI50 (EKVX) was 22 µM, the Activity [22] was 45% and the Activity [23] was 62%. For the same molecule, the Activity [24] was 77%, the GI50 (HOP-62) was 31.8 µM and the Activity [25] was 105%. The Activity [26] was 106%.
